Assay results: patent US20260042764A1, “COMPOSITIONS AND METHODS FOR INHIBITION OF KRAS” (TheRas, Inc., priority 2022, published 2026)

Assays:
[1] = target: T1, Avi-KRAS WT (1-169) GppNHp/RAF1 RBD-3xFLAG (52-151) (Homo sapiens, UniProt P01116); test: Raf1-KRAS WT-GppNHP disruption HTRF assay (Biological Example 1); type: binding; settings: KRAS WT, GppNHp-loaded; Table 11
T1 construct: Avi-KRAS WT (1-169)
How it was run: (§1)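 Read-out is HTRF signal of the KRAS–RAF1 RBD complex, reported as percentage of activity relative to DMSO (100%). Protein mix and detection reagents each incubated 1 h at room temperature with 700 rpm shaking. Buffer: 50 mM Tris pH 7.5, 100 mM NaCl, 5 mM MgCl2, 0.1% BSA, 0.01% Tween, 10% DMSO.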

[2] = target: T2, Avi-KRAS G12V (1-169) GppNHp/RAF1 RBD-3xFLAG (52-151) (Homo sapiens, UniProt P01116, G12V); test: Raf1-KRAS G12V-GppNHP disruption HTRF assay (Biological Example 1); type: binding; settings: KRAS G12V, GppNHp-loaded; Table 11
T2 construct: Avi-KRAS G12V (1-169)
T2 sequence (P01116 1-169 isoform P01116-2 G12V): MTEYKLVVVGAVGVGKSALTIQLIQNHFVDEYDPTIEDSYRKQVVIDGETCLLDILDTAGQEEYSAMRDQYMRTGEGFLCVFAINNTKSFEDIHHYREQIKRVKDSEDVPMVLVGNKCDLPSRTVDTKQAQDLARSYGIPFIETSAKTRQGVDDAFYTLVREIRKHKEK
How it was run: as §1

[3] = target: T3, Avi-KRAS G12R (1-169) GppNHp/RAF1 RBD-3xFLAG (52-151) (Homo sapiens, UniProt P01116, G12R); test: Raf1-KRAS G12R-GppNHP disruption HTRF assay (Biological Example 1); type: binding; settings: KRAS G12R, GppNHp-loaded; Table 11
T3 construct: Avi-KRAS G12R (1-169)
T3 sequence (P01116 1-169 isoform P01116-2 G12R): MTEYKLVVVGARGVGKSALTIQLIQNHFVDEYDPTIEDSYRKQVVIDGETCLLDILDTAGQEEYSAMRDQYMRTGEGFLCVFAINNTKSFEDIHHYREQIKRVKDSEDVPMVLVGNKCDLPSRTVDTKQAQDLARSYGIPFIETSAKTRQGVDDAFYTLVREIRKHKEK
Procedure: A protein:protein interaction (PPI) Homogeneous Time Resolved Fluorescence (HTRF) assay was used to determine the effectiveness of compounds of the present disclosure in disrupting KRAS protein and effector RAF1 binding.
The assay buffer included: 50 mM Tris pH 7.5, 100 mM NaCl, 5 mM MgCl2, 0.1% BSA, 0.01% Tween, and 10% DMSO. The bead buffer included: 50 mM Tris pH 7.5, and 0.01% Tween 20. Assay volume of 20 μL was used in a 384 well plate-low volume format.
The HTRF assay employed the following protocol:
Protein mix was prepared in assay buffer, and dispensed on plates, 10 μL per well, then incubated for 1 h at room temperature, with 700 rpm shaking, Reagents mix was prepared and dispensed on plates, 10 μL per well, then incubated for 1 h at room temperature, with 700 rpm shaking.
Data was reported as percentage of activity, with DMSO as 100%. Data was plotted and analyzed using Prism 8.

GP2d cells (KRAS G12D) = test: Cell-based pERK HTRF assay in GP2d cell (Biological Example 2); settings: GP2d (KRAS G12D) cells, pERK HTRF
How it was run: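 HTRF read-out of pERK (excitation 320 nm, emission 615 nm) after lysates sat 4–24 h at room temperature with Eu cryptate and d2 antibodies.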

[4] = target: T4, Avi-KRAS G12D (1-169) GppNHp/RAF1 RBD-3xFLAG (52-151) (Homo sapiens, UniProt P01116, G12D); test: Raf1-KRAS G12D-GppNHP disruption HTRF assay (Biological Example 1); type: binding; settings: KRAS G12D, GppNHp-loaded; Table 11
T4 construct: Avi-KRAS G12D (1-169)
T4 sequence (P01116 1-169 isoform P01116-2 G12D): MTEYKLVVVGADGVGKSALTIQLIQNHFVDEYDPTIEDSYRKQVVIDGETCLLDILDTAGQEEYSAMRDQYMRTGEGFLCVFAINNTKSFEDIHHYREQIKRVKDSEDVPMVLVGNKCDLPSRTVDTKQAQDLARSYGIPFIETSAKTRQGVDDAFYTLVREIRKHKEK
How it was run: as §1

T1 sequence (P01116 1-169 isoform P01116-2): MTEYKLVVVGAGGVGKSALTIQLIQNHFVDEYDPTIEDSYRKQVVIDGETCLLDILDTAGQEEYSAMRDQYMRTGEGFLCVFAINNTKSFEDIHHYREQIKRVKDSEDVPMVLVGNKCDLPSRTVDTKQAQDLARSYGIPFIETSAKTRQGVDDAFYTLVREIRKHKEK

Row | IC50 [1] [nM] | IC50 [2] [nM] | IC50 [3] [nM] | IC50 (GP2d cells (KRAS G12D); GP2d) [nM] | IC50 [4] [nM] | IC50 (GP2d cells (KRAS G12D)) [nM] | Compound
1 | 100 to 1000 | 100 to 1000 | 100 to 1000 | < 100 | 100 to 1000 |  | CN(c1nc(OC[C@@]23CCCN2C[C@H](F)C3)nc2c(F)c(-c3ccc(F)c4sc(N)c(C#N)c34)c(Cl)cc12)[C@H]1C[C@@H](O)C1 [Compound 24]
2 | 100 to 1000 | 100 to 1000 | 100 to 1000 | < 100 | 100 to 1000 |  | N#Cc1c(N)sc2c(F)ccc(-c3c(C(F)(F)F)cc4c(N5CCCC5)nc(OC[C@@]56CCCN5C[C@H](F)C6)nc4c3F)c12 [Compound 156]
3 | > 10000 | > 10000 | > 10000 |  | > 10000 | > 1000 | CC(=O)N1CCC(N(C)c2nc(OCC34CCCN3CC(F)C4)nc3c(F)c(-c4ccc(F)c5scc(C#N)c45)c(C(F)(F)F)cc23)C1 (stereo not shown) [Compound 105]
4 | > 10000 | > 10000 | > 10000 | > 1000 | > 10000 |  | CN(c1nc(OC[C@@]23CCCN2C[C@H](F)C3)nc2c(F)c(-c3ccc(F)c4scc(C#N)c34)c(C(F)(F)F)cc12)[C@@H]1CCN(C(=O)CC#N)C1 [Compound 106]
5 | 100 to 1000 | 100 to 1000 | 100 to 1000 | < 100 | 100 to 1000 |  | CN(c1nc(OC[C@@]23CCCN2C[C@H](F)C3)nc2c(F)c(-c3ccc(F)c4sc(N)c(C#N)c34)c(C(F)(F)F)cc12)[C@@H]1CCOC1 [Compound 132]
6 | 100 to 1000 | 100 to 1000 | 100 to 1000 | < 100 | 100 to 1000 |  | CN(c1nc(OC[C@@]23CCCN2C[C@H](F)C3)nc2c(F)c(-c3ccc(F)c4sc(N)c(C#N)c34)c(C(F)(F)F)cc12)[C@@H]1C[C@H](O)[C@H]1CC#N [Compound 182]
7 | 100 to 1000 | 100 to 1000 | 100 to 1000 | < 100 | 100 to 1000 |  | N#Cc1c(N)sc2c(F)ccc(-c3c(C(F)(F)F)cc4c(N5CC(CO)C5)nc(OC[C@@]56CCCN5C[C@H](F)C6)nc4c3F)c12 [Compound 129]
8 | < 100 | 100 to 1000 | < 100 | < 100 | < 100 |  | N#Cc1c(N)sc2c(F)ccc(-c3c(C(F)(F)F)cc4c(N(CCO)CCO)nc(OC[C@@]56CCCN5C[C@H](F)C6)nc4c3F)c12 [Compound 174]
9 | 100 to 1000 | 100 to 1000 | < 100 | < 100 | < 100 |  | CCN(C)c1nc(OC[C@@]23CCCN2C[C@H](F)C3)nc2c(F)c(-c3ccc(F)c4sc(N)c(C#N)c34)c(C(F)(F)F)cc12 [Compound 81, 2-amino-4-[4-[ethyl(methyl)amino]-8-fluoro-2-[[(2R,8S)-2-fluoro-1,2,3,5,6,7-hexahydropyrrolizin-8-yl]methoxy]-6-(trifluoromethyl)quinazolin-7-yl]-7-fluoro-benzothiophene-3-carbonitrile]
10 | 100 to 1000 | 100 to 1000 | 100 to 1000 | < 100 | 100 to 1000 |  | CN(c1nc(OC[C@@]23CCCN2C[C@H](F)C3)nc2c(F)c(-c3ccc(F)c4sc(N)c(C#N)c34)c(C(F)(F)F)cc12)[C@@H]1CCN(C(=O)CC#N)C1 (atropisomer, axis not shown) [Compound 103]
11 | 100 to 1000 | 100 to 1000 | 100 to 1000 | < 100 | < 100 |  | C[C@H](CO)N(C)c1nc(OC[C@@]23CCCN2C[C@H](F)C3)nc2c(F)c(-c3ccc(F)c4sc(N)c(C#N)c34)c(C(F)(F)F)cc12 [Compound 76]
12 | < 100 | < 100 | < 100 | < 100 | < 100 |  | CCN(CCO)c1nc(OC[C@@]23CCCN2C[C@H](F)C3)nc2c(F)c(-c3ccc(F)c4sc(N)c(C#N)c34)c(C(F)(F)F)cc12 [Compound 74]
13 | 1000 to 10000 | 1000 to 10000 | 1000 to 10000 | 100 to 1000 | 1000 to 10000 |  | CC(=O)N1CCN(c2nc(OC[C@@]34CCCN3C[C@H](F)C4)nc3c(F)c(-c4ccc(F)c5sc(N)c(C#N)c45)c(C(F)(F)F)cc23)C[C@@H]1CC#N [Compound 183]
14 | 100 to 1000 | 100 to 1000 | 100 to 1000 | < 100 | 100 to 1000 |  | CN(c1nc(OC[C@@]23CCCN2C[C@H](F)C3)nc2c(F)c(-c3ccc(F)c4sc(N)c(C#N)c34)c(C(F)(F)F)cc12)[C@@H]1CCS(=O)(=O)C1 [Compound 93]
15 | 100 to 1000 | 1000 to 10000 | 100 to 1000 | < 100 | 100 to 1000 |  | N#Cc1c(N)sc2c(F)ccc(-c3c(C(F)(F)F)cc4c(N5CC6CCC(C5)C6O)nc(OC[C@@]56CCCN5C[C@H](F)C6)nc4c3F)c12 (stereo partly shown) [Compound 128]
16 | 100 to 1000 | 100 to 1000 | 100 to 1000 | < 100 | 100 to 1000 |  | CC1(CO)CCN(c2nc(OCC34CCCN3CC(F)C4)nc3c(F)c(-c4ccc(F)c5sc(N)c(C#N)c45)c(C(F)(F)F)cc23)CC1 (stereo not shown) [Compound 48]
17 | < 100 | < 100 | < 100 | < 100 | < 100 |  | CN(c1nc(OCC23CCCN2CCC3)nc2c(F)c(-c3ccc(F)c4sc(N)c(C#N)c34)c(C(F)(F)F)cc12)[C@H]1C[C@@H](O)C1 [Compound 25]
18 | 100 to 1000 | 1000 to 10000 | 100 to 1000 | < 100 | 100 to 1000 |  | N#Cc1c(N)sc2c(F)ccc(-c3c(C(F)(F)F)cc4c(N5CC6CCC(C5)O6)nc(OC[C@@]56CCCN5C[C@H](F)C6)nc4c3F)c12 [Compound 130]
19 | 100 to 1000 | 100 to 1000 | 100 to 1000 | < 100 | 100 to 1000 |  | CC(=O)N1CC[C@H](N(C)c2nc(OC[C@@]34CCCN3C[C@H](F)C4)nc3c(F)c(-c4ccc(F)c5sc(N)c(C#N)c45)c(C(F)(F)F)cc23)[C@H]1C [Compound 191]
20 | 100 to 1000 | 100 to 1000 | 100 to 1000 | < 100 | 100 to 1000 |  | N#Cc1c(N)sc2c(F)ccc(-c3c(C(F)(F)F)cc4c(N5C[C@H](F)[C@@H](F)C5)nc(OC[C@@]56CCCN5C[C@H](F)C6)nc4c3F)c12 [Compound 158]
21 | 100 to 1000 | 100 to 1000 | 100 to 1000 | < 100 | 100 to 1000 |  | N#Cc1c(N)sc2c(F)ccc(-c3c(C(F)(F)F)cc4c(N5CC[C@H]5CO)nc(OC[C@@]56CCCN5C[C@H](F)C6)nc4c3F)c12 [Compound 169]
22 | 100 to 1000 | 100 to 1000 | 100 to 1000 | < 100 | 100 to 1000 |  | N#Cc1c(N)sc2c(F)ccc(-c3c(C(F)(F)F)cc4c(N5CCC(O)CC5)nc(OC[C@@]56CCCN5C[C@H](F)C6)nc4c3F)c12 [Compound 127]
23 | 1000 to 10000 | 1000 to 10000 | 1000 to 10000 | < 100 | 100 to 1000 |  | C[C@@H]1CN(c2nc(OC[C@@]34CCCN3C[C@H](F)C4)nc3c(F)c(-c4ccc(F)c5sc(N)c(C#N)c45)c(C(F)(F)F)cc23)[C@@H](C)CO1 [Compound 140]
24 | 100 to 1000 | 100 to 1000 | 100 to 1000 | < 100 | 100 to 1000 |  | N#Cc1c(N)sc2c(F)ccc(-c3c(C(F)(F)F)cc4c(N5CC[C@H](CO)C5)nc(OC[C@@]56CCCN5C[C@H](F)C6)nc4c3F)c12 [Compound 123]
25 | 100 to 1000 | 100 to 1000 | 100 to 1000 | < 100 | 100 to 1000 |  | CN(c1nc(OC[C@@]23CCCN2C[C@H](F)C3)nc2c(F)c(-c3ccc(F)c4sc(N)c(C#N)c34)c(C(F)(F)F)cc12)[C@H]1C[C@H](O)C1 [Compound 23]
26 | < 100 | 100 to 1000 | < 100 | < 100 | < 100 |  | CN(c1nc(OC[C@@]23CCCN2C[C@H](F)C3)nc2c(F)c(-c3ccc(F)c4sc(N)c(C#N)c34)c(C(F)(F)F)cc12)[C@@H]1C[C@H](O)[C@@H]1CO [Compound 37]
